Results on 1 molecule are retold here after article PMC5104425, “A Novel Selective Inhibitor of Delta-5 Desaturase Lowers Insulin Resistance and Reduces Body Weight in Diet-Induced Obese C57BL/6J Mice” (PLoS ONE, 2016).

One assay has as its target T1, human D5D (Homo sapiens, UniProt O60427).
T1 construct: endogenous in cells; host or cells: HepG2
Description: In vitro cell-based assay for desaturase activity (HepG2), D5D. The method, then: (§1) HepG2 cells were seeded in 96-well cell culture plates at 100 000 cells/well and incubated overnight in DMEM supplemented with 10% fetal bovine serum, 100 U/mL penicillin, and 100 μg/mL streptomycin in 5% CO2 at 37°C. The cells were washed twice with 200 μL of PBS and incubated with the test compounds in DMEM with 0.1% fatty acid free BSA for 30 min. Then, 0.1 μCi/well of [^14C]-labeled DGLA, linoleic acid, and stearic acid (ARC, St. Louis, MO) were added for each desaturase assay. After incubation for 3 h at 37°C, the cells were washed 3 times with 200 μL of PBS to remove [^14C]-labeled substrates in the medium and 0.63 N of NaOH was added to saponify fatty acids. Radioactive substrates and products were extracted, separated, and analyzed using the method as described above.

The next assay concerns DIO mice. Description: Established DIO mice (HFD D12079B for 50 weeks), 11-week treatment: BW, calorie intake, fat mass. Format: in vivo, C57BL/6J mice. Here is the method:
In this report, we performed 3 independent studies in DIO mice to characterize anti-obesity effects of our D5D specific inhibitor. Male C57BL/6J mice were obtained from Charles River Laboratories (Yokohama, Japan) or CLEA Japan (Osaka, Japan). The mice were fed a laboratory chow and water ad libitum and housed in a 12-h light/dark cycle. Compound or vehicle was administered once daily between 15: 00–19:00 by oral gavage. Body weight (BW) and food intake were monitored throughout the experiment.
To evaluate the effect on daily EE, DIO mice fed a HFD that has 41% kcal from fat and contains no AA (D12079B; Research diets, Inc., see S1 Table for fatty acids composition) for 50 weeks were used. At 55 weeks of age, DIO mice were divided into two weight-matched groups (7 animals per group) and treated with vehicle or 10 mg/kg compound-326 for 11 weeks. […] Indirect calorimetry test was performed on day1, 8, 15, 21, and 56 during the study. Daily EE was analyzed using ANCOVA with body mass as covariate. After the treatment period, mice were sacrificed and fat tissues were harvested to evaluate the weights.

The target of a further assay is T2, rat D5D (Rattus norvegicus, UniProt Q920R3).
T2 construct: using hepatic microsomes prepared from SD rats; from tissue; host or cells: liver microsomes of SD rats (CLEA, Japan)
T2 sequence (Q920R3 whole entry): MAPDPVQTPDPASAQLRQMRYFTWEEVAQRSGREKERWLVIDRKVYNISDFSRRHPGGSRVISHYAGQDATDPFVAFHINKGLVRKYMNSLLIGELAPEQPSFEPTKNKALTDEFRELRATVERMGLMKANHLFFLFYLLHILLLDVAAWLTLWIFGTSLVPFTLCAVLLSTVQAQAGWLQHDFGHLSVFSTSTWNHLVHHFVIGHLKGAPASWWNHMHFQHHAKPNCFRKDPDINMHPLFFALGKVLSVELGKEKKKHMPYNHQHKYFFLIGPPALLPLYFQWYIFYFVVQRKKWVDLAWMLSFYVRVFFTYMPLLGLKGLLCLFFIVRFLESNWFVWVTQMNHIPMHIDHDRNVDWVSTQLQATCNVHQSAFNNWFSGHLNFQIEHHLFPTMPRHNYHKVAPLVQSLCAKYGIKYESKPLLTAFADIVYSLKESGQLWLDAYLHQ
Description: In vitro enzyme assay for desaturase activity (hepatic microsomes), D5D. Format: biochemical. Here is the method: (§2) Therefore, we also confirmed that compound-326 has no effect on D9D activity. Inhibitory activity of compound-326 on rat D5D, D6D, and D9D was evaluated using hepatic microsomes prepared from SD rats (CLEA, Japan) as described previously. Assays were performed in a total volume of 30 μL in 96-well plates in a buffer containing 100 mM NaHPO4, 150 mM KCl, 10 mM NaF, 1.5 mM glutathione, 3 mM MgCl2, 1 mM NADH, 3 mM ATP, 0.3 mM CoA-SH, and 0.1% fatty acid free bovine serum albumin (BSA, Sigma, St. Louis, MO); and 0.1 μCi/well of [^14C] DGLA or [^14C] linoleic acids (ARC, St. Louis, MO) were used as substrates for measuring D5D and D6D activities, respectively. After pre-incubation of the test compound with rat liver microsomes (final 1.0 mg/mL) for 5 min, the reaction was started by the addition of NADH, ATP, and the substrates, and the reaction mixture was incubated for another 120 min at room temperature. For D9D assay, [^14C] stearoyl-CoA (PerkinElmer, Waltham, MA) was used in the absence of NADH, ATP, and CoA-SH, and D9D enzyme reaction was performed for 30 min. The reactions were then terminated by the addition of 0.63 N NaOH. […] 2.3 (Fujifilm) and IC50 values were determined using the conversion ratio from the radioactive substrates (20:3n6, 18:2n6 and 18:0) to the products (20:4n6, 18:3n6 and 18:1n9).

Another assay has as its target T3, rat D9D (Rattus norvegicus, UniProt P07308).
T3 construct: using hepatic microsomes prepared from SD rats; from tissue; host or cells: liver microsomes of SD rats (CLEA, Japan)
T3 sequence (P07308 1-358): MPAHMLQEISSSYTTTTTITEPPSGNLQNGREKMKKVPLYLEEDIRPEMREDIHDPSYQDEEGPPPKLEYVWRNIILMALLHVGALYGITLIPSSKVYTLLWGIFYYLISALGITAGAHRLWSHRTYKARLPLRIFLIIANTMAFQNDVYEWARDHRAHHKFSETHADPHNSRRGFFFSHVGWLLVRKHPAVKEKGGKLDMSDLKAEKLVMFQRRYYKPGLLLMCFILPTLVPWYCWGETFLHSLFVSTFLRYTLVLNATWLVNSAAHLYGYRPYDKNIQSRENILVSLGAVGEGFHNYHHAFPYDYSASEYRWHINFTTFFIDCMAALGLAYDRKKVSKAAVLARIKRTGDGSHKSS
The assay is described as follows: In vitro enzyme assay for desaturase activity (hepatic microsomes), D9D. Format: biochemical. The method, then:
as §2

In another assay the target is T4, human D9D (Homo sapiens, UniProt O00767).
T4 construct: endogenous in cells; host or cells: HepG2
T4 sequence (O00767 1-359): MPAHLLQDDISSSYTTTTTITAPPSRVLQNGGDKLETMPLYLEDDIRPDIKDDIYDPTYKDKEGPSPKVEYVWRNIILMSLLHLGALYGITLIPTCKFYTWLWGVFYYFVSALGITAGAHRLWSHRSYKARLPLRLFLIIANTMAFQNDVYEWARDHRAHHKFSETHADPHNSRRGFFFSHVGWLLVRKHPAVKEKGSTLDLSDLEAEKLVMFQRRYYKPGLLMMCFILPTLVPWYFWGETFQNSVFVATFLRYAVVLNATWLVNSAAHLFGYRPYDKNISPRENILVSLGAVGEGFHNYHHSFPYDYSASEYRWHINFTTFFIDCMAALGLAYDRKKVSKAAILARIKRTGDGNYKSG
The assay is described as follows: In vitro cell-based assay for desaturase activity (HepG2), D9D. The method, then: as §1

Where only a bound is given, the exact number is not on record here.

A word on the IC50: it is the midpoint of a concentration-inhibition curve. Lower therefore signals greater potency in that assay.

T1 sequence (O60427 whole entry): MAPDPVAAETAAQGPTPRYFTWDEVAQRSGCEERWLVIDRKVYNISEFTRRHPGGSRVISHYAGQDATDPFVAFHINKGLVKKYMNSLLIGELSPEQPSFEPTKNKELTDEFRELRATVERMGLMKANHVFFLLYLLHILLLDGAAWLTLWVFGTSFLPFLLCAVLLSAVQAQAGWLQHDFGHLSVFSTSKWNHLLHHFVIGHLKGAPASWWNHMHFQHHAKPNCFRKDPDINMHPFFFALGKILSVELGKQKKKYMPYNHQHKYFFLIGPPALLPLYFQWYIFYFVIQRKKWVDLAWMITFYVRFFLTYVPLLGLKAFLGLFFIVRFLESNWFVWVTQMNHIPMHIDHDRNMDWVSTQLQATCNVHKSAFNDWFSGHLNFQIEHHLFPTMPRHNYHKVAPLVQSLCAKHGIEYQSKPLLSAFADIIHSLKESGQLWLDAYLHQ

In the case of `O=C1Cc2c(nc(OCC(F)(F)C(F)(F)F)n(-c3ccc(OCC(F)(F)F)cc3)c2=O)N1` [Compound-326, 2-(2,2,3,3,3-Pentafluoropropoxy)-3-[4-(2,2,2-trifluoroethoxy)phenyl]-5,7-dihydro-3H-pyrrolo[2,3-d]pyrimidine-4,6-dione], the IC50 on human D5D was 22 nM; on rat D5D, 72 nM; on rat D9D (Enzyme (hepatic microsomes), rat) it was greater than 10000 nM; at human D9D it was greater than 10000 nM. Also, in the assay with DIO mice (10 mg/kg p.o., 11 weeks), the daily calorie intake entry is listed as “slightly decreased until day 21, followed by a trend toward increase”. In addition, in the assay on DIO mice (10 mg/kg p.o., 11 weeks (data not shown)), the cumulative calorie intake result was “no appreciable change”. In the assay with DIO mice (10 mg/kg p.o., 11 weeks, from day 21 until day 77), the BW result is “sustained and significant BW reduction”. The “white adipose tissue (WAT) depot mass” value with DIO mice (10 mg/kg, 11 weeks, mesenteric fat p≤0.05, subcutaneous and epididymal fat p≤0.01 vs vehicle) is given as “marked decrease”. The “effect on D9D activity” value at rat D9D (species not given) is “no effect”.
